Holding throughout (format): cell-based
In one assay the target is T1, TLR7 (Homo sapiens, UniProt Q9NYK1).
T1 construct: endogenous in cells; host or cells: freshly isolated human PBMC from donor buffy coats
T1 sequence (Q9NYK1 27-1049): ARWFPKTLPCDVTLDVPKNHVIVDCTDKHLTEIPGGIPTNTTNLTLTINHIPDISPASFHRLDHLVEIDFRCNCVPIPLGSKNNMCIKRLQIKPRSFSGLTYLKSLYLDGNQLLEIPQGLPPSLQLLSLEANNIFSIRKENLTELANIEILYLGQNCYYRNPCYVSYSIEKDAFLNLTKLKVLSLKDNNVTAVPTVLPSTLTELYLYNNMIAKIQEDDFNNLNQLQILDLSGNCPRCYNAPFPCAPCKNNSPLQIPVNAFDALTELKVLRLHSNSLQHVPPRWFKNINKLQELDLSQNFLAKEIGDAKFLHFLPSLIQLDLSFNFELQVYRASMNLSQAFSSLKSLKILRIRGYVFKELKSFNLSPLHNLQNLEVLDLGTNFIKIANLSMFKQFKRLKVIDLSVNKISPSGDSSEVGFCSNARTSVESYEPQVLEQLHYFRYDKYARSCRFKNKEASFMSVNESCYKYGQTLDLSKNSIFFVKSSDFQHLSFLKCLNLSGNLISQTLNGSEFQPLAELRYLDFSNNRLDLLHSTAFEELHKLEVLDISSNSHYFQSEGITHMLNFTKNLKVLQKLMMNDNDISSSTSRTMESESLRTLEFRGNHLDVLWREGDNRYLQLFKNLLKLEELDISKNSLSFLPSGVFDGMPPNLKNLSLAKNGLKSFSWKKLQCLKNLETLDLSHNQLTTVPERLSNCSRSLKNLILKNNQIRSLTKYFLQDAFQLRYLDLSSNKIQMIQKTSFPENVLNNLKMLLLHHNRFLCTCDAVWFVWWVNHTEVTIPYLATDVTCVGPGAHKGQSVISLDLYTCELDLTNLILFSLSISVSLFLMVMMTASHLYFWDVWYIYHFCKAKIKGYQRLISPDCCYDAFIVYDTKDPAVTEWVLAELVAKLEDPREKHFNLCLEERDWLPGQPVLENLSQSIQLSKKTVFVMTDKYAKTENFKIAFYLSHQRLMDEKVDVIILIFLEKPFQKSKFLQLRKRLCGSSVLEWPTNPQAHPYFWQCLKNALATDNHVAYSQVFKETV
In words: Human PBMC, IFN-α readout using ORN R-1362+DOTAP (TLR7 antagonism). The source says: (§1) Peripheral blood mononuclear cell (PBMC) buffy coat preparations from healthy male and female human donors were obtained from the Institute for Hemostaseology and Transfusion Medicine of the University of Düsseldorf (Germany).
(§2) PBMC were purified by centrifugation over Ficoll-Hypaque (Sigma). Purified PBMC were washed twice with 1×PBS and resuspended in RPMI 1640 culture medium supplemented with 5% (v/v) heat-inactivated human AB serum (BioWhittaker, Belgium) or 10% (v/v) heat-inactivated fetal calf serum (FCS), 1.5 mM L-glutamine, 100 U/ml penicillin and […] streptomycin (all from Sigma, Deisenhofen, Germany).
(§3) Freshly isolated PBMC were resuspended at a concentration of 3×10^6/ml to 5×10^6/ml with RPMI 1640 culture medium and added to 96-well round-bottomed plates (150 μl/well) which had previously received nothing or selected concentrations (typically 10 μM-0.085 nM as 7-fold serial dilutions) of small molecule. To assay antagonist reaction for TLR9, 1 μM CpG oligodeoxynucleotide (ODN) 2395 ([…]; SEQ ID NO:3) was added to wells containing small molecules. To assay antagonist reaction for TLR7 and TLR8, 0.5 μM oligoribonucleotide (ORN) R-1362 ([…]; SEQ ID NO:4) complexed to 5 μg/ml DOTAP was added to wells containing small molecules. To calculate response to CpG ODN 2395 alone or ORN R-1362+DOTAP alone, wells without small molecules were stimulated with CpG ODN 2395 or ORN R-1362+DOTAP.
(§4) Cells were cultured in a humidified incubator at 37° C. for 16 h. Culture supernatants were then collected and, if not used immediately, frozen at −20° C. until required.
(§5) Amounts of cytokines in the supernatants were assessed using enzyme-linked immunosorbent assays (ELISA) specific for IFN-α or TNF-α using commercially available antibodies or kits from BD Pharmingen or Diaclone, respectively. IFN-α readout using CpG 2395 was used to measure TLR9 response. IFN-α readout using ORN R-1362+DOTAP was used to measure TLR7 response. TNF-α release using R-1362 complexed to DOTAP was used to measure TLR8-mediated immune response.

The target in another assay is T2, TLR8 (Homo sapiens, UniProt Q9NR97).
T2 construct: endogenous in cells; host or cells: freshly isolated human PBMC from donor buffy coats
T2 sequence (Q9NR97 27-1041): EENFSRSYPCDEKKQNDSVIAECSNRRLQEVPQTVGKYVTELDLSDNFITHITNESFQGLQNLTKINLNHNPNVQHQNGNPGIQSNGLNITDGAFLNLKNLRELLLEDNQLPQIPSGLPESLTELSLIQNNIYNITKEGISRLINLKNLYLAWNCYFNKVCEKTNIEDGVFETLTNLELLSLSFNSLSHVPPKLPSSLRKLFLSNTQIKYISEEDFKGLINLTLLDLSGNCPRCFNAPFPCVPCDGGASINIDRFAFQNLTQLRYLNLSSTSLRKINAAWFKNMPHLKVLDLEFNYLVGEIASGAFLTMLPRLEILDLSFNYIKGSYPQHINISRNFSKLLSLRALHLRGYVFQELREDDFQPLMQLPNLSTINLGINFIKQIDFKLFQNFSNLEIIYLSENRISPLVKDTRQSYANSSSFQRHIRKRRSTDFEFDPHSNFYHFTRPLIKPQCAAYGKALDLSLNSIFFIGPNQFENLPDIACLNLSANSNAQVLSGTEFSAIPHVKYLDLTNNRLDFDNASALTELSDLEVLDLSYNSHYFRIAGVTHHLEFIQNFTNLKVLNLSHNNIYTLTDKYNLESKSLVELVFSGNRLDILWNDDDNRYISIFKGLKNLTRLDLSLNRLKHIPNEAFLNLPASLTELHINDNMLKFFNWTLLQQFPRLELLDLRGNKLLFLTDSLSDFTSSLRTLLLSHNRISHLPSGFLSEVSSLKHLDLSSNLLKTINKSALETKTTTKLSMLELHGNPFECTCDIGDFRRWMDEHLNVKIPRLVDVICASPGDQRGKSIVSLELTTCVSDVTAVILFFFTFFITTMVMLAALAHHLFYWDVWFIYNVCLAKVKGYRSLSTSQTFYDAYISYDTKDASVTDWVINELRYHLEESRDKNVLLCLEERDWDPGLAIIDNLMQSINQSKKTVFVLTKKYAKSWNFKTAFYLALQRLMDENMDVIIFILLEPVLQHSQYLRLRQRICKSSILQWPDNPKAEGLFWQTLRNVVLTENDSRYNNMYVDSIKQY
Nature of the assay: Human PBMC, TNF-α release using ORN R-1362+DOTAP (TLR8 antagonism).
Source text: as §1, §2, §3, §4, §5

Another assay deals with T3, TLR9 (Homo sapiens, UniProt Q9NR96).
T3 construct: endogenous in cells; host or cells: freshly isolated human PBMC from donor buffy coats
T3 sequence (Q9NR96 26-1032): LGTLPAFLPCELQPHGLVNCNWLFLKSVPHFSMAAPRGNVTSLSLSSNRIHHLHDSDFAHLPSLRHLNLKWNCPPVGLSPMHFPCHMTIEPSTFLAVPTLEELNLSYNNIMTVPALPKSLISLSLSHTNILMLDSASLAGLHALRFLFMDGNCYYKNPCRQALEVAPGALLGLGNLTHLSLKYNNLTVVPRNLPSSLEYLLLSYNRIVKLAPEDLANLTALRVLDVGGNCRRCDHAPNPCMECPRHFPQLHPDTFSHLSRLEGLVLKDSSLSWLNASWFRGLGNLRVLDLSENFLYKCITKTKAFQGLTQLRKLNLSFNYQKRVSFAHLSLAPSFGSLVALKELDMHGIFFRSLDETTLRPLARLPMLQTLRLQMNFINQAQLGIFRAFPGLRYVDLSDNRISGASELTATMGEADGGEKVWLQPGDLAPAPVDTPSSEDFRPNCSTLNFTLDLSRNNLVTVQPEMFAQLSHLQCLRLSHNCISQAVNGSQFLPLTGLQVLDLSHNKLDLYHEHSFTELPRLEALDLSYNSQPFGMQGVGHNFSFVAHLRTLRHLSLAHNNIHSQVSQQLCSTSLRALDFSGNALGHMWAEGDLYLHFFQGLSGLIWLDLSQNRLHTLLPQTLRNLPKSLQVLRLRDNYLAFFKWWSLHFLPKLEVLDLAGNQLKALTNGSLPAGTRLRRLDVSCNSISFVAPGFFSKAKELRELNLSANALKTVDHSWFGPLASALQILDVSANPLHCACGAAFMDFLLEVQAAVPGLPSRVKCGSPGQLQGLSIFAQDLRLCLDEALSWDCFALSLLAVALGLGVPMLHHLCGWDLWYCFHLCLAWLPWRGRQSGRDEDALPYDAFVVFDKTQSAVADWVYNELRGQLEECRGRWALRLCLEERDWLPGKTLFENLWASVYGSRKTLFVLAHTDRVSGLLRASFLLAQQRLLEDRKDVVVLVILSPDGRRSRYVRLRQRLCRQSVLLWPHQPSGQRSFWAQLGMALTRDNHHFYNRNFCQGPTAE
In words: Human PBMC, IFN-α readout using CpG ODN 2395 (TLR9 antagonism).
Source text: as §1, §2, §3, §4, §5

Setting [1] is: in vitro testing as described in Example 63, read-out: TLR7 IC50, Experimental.
Setting [2] is: in vitro testing as described in Example 63, read-out: TLR8 IC50, Experimental.
[3] abbreviates: in vitro testing as described in Example 63, read-out: TLR9 IC50, Experimental.

Molecules are shown by their SMILES. Where two headings read alike, the source gives them in different places.

The term IC50 denotes the midpoint of a concentration-inhibition curve.

Regarding `CN1CCN(c2ccc(-c3cc(NCCN4CCOCC4)c4ncccc4n3)cc2)CC1` [6 (BIV)], the values for the concentration for half-maximal inhibition (IC50) on TLR7 (setting [1]), at TLR8 (setting [2]) and on TLR9 (setting [3]) were 70 nM, 100 nM and 44 nM, respectively.
The matching figures for `CN1CCN(c2ccc(-c3cc(NCCN4CCOCC4)c4ncccc4n3)cc2)CC1` [6 (CaI)]: 790 nM, 140 nM and 250 nM.
Regarding `CN1CCN(c2cc(NCCN3CCOCC3)c3cc(-c4ccccc4)ccc3n2)CC1` [6 (CI)], the concentration for half-maximal inhibition (IC50) on TLR7 (setting [1]) is 200 nM; at TLR8 (setting [2]) it was 600 nM; on TLR9 (setting [3]), 200 nM.
Take `CN1CCN(c2ccc(-c3cc(NCCN4CCOCC4)c4ncccc4n3)cc2)CC1` [6 (A3I)]: the IC50 was determined as 720 nM at TLR7 (human PBMC, 0.5 μM ORN R-1362 + 5 μg/ml DOTAP, 16 h, IFN-α ELISA, read-out: IC50 TLR7, Experimental); 110 nM on TLR8 (human PBMC, 0.5 μM ORN R-1362 + 5 μg/ml DOTAP, 16 h, TNF-α ELISA, read-out: IC50 TLR8, Experimental); 73 nM at TLR9 (human PBMC, 1 μM CpG ODN 2395, 16 h, IFN-α ELISA, read-out: IC50 TLR9, Experimental).
On to `CN1CCN(c2ccc3nc(-c4ccccc4)nc(NCCN4CCOCC4)c3c2)CC1` [Compound 8 (Example 72)], for which the half-maximal inhibitory concentration (IC50) at TLR7 (setting [1]) turned out to be 76 nM; at TLR8 (setting [2]) it was 18 nM; at TLR9 (setting [3]), 78 nM.
The matching figures for `CN1CCN(c2ccc3nc(-c4ccccc4)cc(NCCN4CCOCC4)c3c2)CC1` [5 (DI)]: 75 nM, 28 nM and 72 nM.
